Common to all, as to assay type: ADME
For series [1], the target named is T1, UDP-glucuronosyltransferase 1A6 (Homo sapiens, UniProt P19224).
T1 sequence (P19224 whole entry): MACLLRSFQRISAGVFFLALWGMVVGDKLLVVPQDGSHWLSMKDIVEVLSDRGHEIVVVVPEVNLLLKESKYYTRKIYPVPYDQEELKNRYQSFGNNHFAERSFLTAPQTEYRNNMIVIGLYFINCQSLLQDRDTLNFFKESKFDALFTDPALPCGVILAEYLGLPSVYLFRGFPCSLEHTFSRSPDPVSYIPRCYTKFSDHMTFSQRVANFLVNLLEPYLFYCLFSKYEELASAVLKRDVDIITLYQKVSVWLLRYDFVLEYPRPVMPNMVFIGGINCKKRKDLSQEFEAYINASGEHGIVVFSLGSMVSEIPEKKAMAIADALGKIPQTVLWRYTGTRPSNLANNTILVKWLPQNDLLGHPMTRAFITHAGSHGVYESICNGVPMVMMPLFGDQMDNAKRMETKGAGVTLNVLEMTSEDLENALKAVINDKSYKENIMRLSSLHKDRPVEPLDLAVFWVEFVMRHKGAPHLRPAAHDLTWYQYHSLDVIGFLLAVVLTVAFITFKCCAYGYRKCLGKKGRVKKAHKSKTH
Description: Activity of human recombinant UGT1A6 expressed in insect cells assessed as enzyme mediated glucuronidation at 12.5 uM by LC-MS/MS method.

Series [2] in a line: Drug metabolism in human kidney microsomes assessed as drug glucuronidation in presence of […] naloxone by LC-MS/MS method.
A short description of series [3]: Drug metabolism in human liver microsomes assessed as drug glucuronidation in presence of BSA by LC-MS/MS method.
The target in series [4] is T2, UDP-glucuronosyltransferase 2B17 (Homo sapiens, UniProt O75795).
T2 sequence (O75795 whole entry): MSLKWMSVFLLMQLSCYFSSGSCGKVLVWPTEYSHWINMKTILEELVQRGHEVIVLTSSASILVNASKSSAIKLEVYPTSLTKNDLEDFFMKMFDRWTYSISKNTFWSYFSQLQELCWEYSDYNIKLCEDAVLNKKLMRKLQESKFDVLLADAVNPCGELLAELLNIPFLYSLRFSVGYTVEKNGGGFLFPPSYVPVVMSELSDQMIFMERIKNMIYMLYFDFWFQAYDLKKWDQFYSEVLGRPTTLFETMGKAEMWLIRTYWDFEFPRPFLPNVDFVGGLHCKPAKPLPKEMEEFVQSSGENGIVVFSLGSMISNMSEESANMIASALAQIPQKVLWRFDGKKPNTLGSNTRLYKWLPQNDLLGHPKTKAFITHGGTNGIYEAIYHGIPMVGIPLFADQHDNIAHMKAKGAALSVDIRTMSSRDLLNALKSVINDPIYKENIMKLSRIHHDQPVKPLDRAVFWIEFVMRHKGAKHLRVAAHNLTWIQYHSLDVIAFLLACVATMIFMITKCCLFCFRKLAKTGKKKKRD
Description: Activity of human recombinant UGT2B17 expressed in insect cells assessed as intrinsic clearance for enzyme mediated glucuronidation per mg protein by LC-MS/MS method.

The next series has as its system Liver microsome. Description: Drug metabolism in human liver microsomes assessed as intrinsic clearance for drug glucuronidation per mg tissue in absence of BSA by LC-MS/MS method.
Series [5] has as its target T3, UDP-glucuronosyltransferase 1A9 (Homo sapiens, UniProt O60656).
T3 sequence (O60656 whole entry): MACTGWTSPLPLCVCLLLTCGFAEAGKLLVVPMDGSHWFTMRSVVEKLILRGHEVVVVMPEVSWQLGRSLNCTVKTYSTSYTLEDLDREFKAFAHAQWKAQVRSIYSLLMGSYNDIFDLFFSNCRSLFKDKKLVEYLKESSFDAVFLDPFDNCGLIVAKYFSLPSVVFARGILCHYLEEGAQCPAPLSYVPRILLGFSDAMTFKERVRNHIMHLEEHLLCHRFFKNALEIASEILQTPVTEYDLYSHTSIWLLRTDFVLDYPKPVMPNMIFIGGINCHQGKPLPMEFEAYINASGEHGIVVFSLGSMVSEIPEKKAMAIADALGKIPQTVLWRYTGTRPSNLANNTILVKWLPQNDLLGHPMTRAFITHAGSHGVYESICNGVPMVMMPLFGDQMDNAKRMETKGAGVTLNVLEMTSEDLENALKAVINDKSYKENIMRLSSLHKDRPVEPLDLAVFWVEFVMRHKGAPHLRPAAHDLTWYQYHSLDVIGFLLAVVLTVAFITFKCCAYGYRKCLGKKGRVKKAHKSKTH
Description: Activity of human recombinant UGT1A9 expressed in insect cells assessed as enzyme mediated glucuronidation at 12.5 uM by LC-MS/MS method.

Series [6] deals with T3, UDP-glucuronosyltransferase 1A9. Description: Activity of human recombinant UGT1A9 expressed in insect cells assessed as enzyme mediated glucuronidation by LC-MS/MS method.
Series [7] addresses T4, UDP-glucuronosyltransferase 1A1 (Homo sapiens, UniProt P22309).
T4 sequence (P22309 whole entry): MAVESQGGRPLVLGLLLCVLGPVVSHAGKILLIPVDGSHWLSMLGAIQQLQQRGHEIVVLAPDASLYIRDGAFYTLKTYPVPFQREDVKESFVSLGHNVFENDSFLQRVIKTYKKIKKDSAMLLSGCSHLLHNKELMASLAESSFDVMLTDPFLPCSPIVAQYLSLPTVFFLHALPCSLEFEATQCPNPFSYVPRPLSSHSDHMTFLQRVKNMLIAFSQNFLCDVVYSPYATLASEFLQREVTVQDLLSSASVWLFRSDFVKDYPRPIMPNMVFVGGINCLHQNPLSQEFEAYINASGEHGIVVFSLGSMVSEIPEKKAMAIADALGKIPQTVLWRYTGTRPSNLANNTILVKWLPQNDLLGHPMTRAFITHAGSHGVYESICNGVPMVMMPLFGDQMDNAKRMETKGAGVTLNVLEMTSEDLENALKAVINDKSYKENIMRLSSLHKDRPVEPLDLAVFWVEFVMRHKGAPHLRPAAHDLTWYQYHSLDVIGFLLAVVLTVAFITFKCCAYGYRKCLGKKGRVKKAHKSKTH
Description: Activity of human recombinant UGT1A1 expressed in insect cells assessed as enzyme mediated glucuronidation at 500 uM by LC-MS/MS method.

The target of series [8] is T3, UDP-glucuronosyltransferase 1A9. Description: Activity of human recombinant UGT1A9 expressed in insect cells assessed as enzyme mediated glucuronidation in presence of 100 to 1000 uM propofol by LC-MS/MS method.
Series [9] has the same target. Description: Activity of human recombinant UGT1A9 expressed in insect cells assessed as intrinsic clearance for enzyme mediated glucuronidation per mg protein by LC-MS/MS method.
The target in series [10] is T1, UDP-glucuronosyltransferase 1A6. Description: Activity of human recombinant UGT1A6 expressed in insect cells assessed as enzyme mediated glucuronidation at 500 uM by LC-MS/MS method.

With `CC1=NN(c2ccccc2)C(=O)C1` [EDARAVONE], the Drug metabolism entry in series [1] is given as “metabolite_detected”; in series [2], “metabolite_detected”; in series [5] it was “metabolite_detected”; in series [7], “metabolite_detected”; in series [8], “metabolite_not_detected”; in series [10], “metabolite_detected”. The Km is 8.4 µM in series [3] (read-out: KmH) and 1350 µM in series [3] (read-out: KmL). In series [4], the CL stood at 3.3 µL/min/g. For the same compound, in the series on Liver microsome, the CLHH was 8.4 µL/min/g. For the same compound, the CLHL in the series with Liver microsome turned out to be 1.3 µL/min/mg. Also, the KmH in series [6] was found to be 6 µM. Further, the KmL in [6] was 419.4 µM. Besides, the CL(high) in series [9] came to 42.4 µL/min/mg. The CL(low) in series [9] stood at 0.8 µL/min/mg.

For the origin of these results see ChEMBL document CHEMBL3526061, “Glucuronidation of edaravone by human liver and kidney microsomes: biphasic kinetics and identification of UGT1A9 as the major UDP-glucuronosyltransferase isoform” (Drug Metab Dispos, 2012).
